Earlier results, collected in patent publication US20220251564A1, “p16INK4a INHIBITOR FOR PREVENTING OR TREATING HUNTINGTON'S DISEASE” (SORBONNE UNIVERSITE, priority 2019, published 2022).

Test system: neurons
Details: in vitro

COc1cc([C@@H]2c3cc4c(cc3[C@@H](O[C@@H]3O[C@@H]5CO[C@@H](C)O[C@H]5[C@H](O)[C@H]3O)[C@H]3COC(=O)[C@H]23)OCO4)cc(OC)c1O [Etoposide]
activation of neurons: activate neurons in vitro
